Assay results as given in article PMC2777898, “CCR2 and CXCR4 regulate peripheral blood monocyte pharmacodynamics and link to efficacy in experimental autoimmune encephalomyelitis” (Journal of Inflammation (London, England), 2009).

Biological target: T1, CCR2 (Mus musculus, UniProt P51683)
T1 construct: membranes from Ba/F3 cells transfected with mouse CCR2
Assay: […]-rhCCL2 radioligand displacement, SPA, on membranes in mouse plasma
Assay type: binding

T1 sequence (P51683 whole entry): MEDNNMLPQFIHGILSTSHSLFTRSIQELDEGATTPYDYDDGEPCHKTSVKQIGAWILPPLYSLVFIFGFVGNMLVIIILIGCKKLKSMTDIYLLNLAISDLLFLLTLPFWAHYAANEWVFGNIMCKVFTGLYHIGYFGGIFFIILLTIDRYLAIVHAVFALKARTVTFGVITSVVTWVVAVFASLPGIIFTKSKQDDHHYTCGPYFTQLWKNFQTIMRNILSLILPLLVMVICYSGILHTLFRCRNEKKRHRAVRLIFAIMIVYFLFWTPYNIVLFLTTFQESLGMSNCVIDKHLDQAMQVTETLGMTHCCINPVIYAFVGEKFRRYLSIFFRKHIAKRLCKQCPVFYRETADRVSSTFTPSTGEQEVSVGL

**Q.** With `CO[C@@H]1COCC[C@@H]1N[C@@H]1CC[C@@](C(=O)N2CCc3ncc(C(F)(F)F)cc3C2)(C(C)C)C1` [MK0812] as the molecule, how does the IC50 read?
**A.** The IC50 was 19 nM.
